Values belong to the compound of their own block, whether it stands above or below them.
Experiments:
[1] = system: differentiation of cells; details: cited from earlier work
[2] = in vivo; cited from earlier work
[3] = system: interleukins; details: cited from earlier work
[4] = system: cell proliferation; details: cited from earlier work
[5] = system: rat intestinal receptor; details: compared with 1,25(OH)2 D3; cited from earlier work
[6] = system: receptor in a human myeloid leukemia cell line (HL-60); details: compared with 1,25(OH)2 D3; cited from earlier work
[7] = in vivo; compared with 1,25(OH)2 D3; cited from earlier work
[8] = system: HL-60 cells; details: in vitro; more potent than 1,25(OH)2 D3; cited from earlier work
[9] = system: chicken intestinal receptor; details: compared with 1,25(OH)2 D3; cited from earlier work
[10] = in vivo; cited from earlier work; remark: listed apart in the source
[11] = system: cell differentiation; details: more potent than 1,25(OH)2 D3; cited from earlier work
[12] = system: human monocytic tumour cell line; assay: induction of cell differentiation in a human monocytic tumour cell line; type: cell-based; details: compared with 1,25(OH)2 D3
[13] = system: human monocytic tumour cell line; assay: inhibition of proliferation of tumour cells; type: cell-based; details: compared with 1,25(OH)2 D3
[14] = calcium metabolism in rats (hypercalciuria, hypercalcemia)
[15] = system: cell differentiation; details: cited from earlier work
[16] = cited from earlier work
[17] = system: cell proliferation; details: cited from earlier work; remark: listed apart in the source
[18] = system: intestinal vitamin D receptor; details: in vitro; compared with 1,25(OH)2 D3; cited from earlier work

Compound: C=C1/C(=C\C=C2/CCC[C@]3(C)[C@@H]([C@H](C)CCCC(C)(C)O)CC[C@@H]23)C[C@@H](O)C[C@@H]1O [1,25(OH)2 D3, 1α,25-dihydroxy-vitamin D3]
stimulation of differentiation of cells [1]: able to stimulate the differentiation of cells | effect on calcium metabolism [2]: well known potent effect | effect on interleukins [3]: influences the effects and/or production of interleukins | inhibition of excessive cell proliferation [4]: inhibit excessive cell proliferation

Compound: C=C1/C(=C\C=C2/CCC[C@]3(C)[C@@H]([C@H](C)CCCCC(C)(C)O)CC[C@@H]23)C[C@@H](O)C[C@@H]1O [24-Homo-1,25-dihydroxyvitamin D3]
binding affinity to the rat intestinal receptor [5]: the same binding affinity as 1,25(OH)2 D3 | binding affinity to the receptor in HL-60 [6]: the same binding affinity as 1,25(OH)2 D3 | potency in calcium metabolism assessments [7]: significantly less potent | potency in inducing differentiation of HL-60 cells relative to 1,25(OH)2 D3 [8]: 10 fold | binding affinity to the chicken intestinal receptor [9]: the same binding affinity as 1,25(OH)2 D3

Compound: C=C1/C(=C\C=C2/CCC[C@]3(C)[C@@H]([C@H](C)CCCC(O)(CCC)CCC)CC[C@@H]23)C[C@@H](O)C[C@@H]1O [26,27-diethyl-1α,25-dihydroxyvitamin D3]
vitamin D activity (calcium metabolism effects) [10]: almost no vitamin D activity | potency in inducing cell differentiation relative to 1,25(OH)2 D3 [11]: 10 fold

Compound: C=C1/C(=C\C=C2/CCC[C@]3(C)[C@@H]([C@H](C)CCCC(C)(O)CC)CC[C@@H]23)C[C@@H](O)C[C@@H]1O (some centres unmarked) [26-homo-1,25-dihydroxyvitamin D3]
binding affinity to the rat intestinal receptor [5]: the same binding affinity as 1,25(OH)2 D3 | binding affinity to the receptor in HL-60 [6]: the same binding affinity as 1,25(OH)2 D3 | potency in calcium metabolism assessments [7]: more potent | potency in inducing differentiation of HL-60 cells relative to 1,25(OH)2 D3 [8]: 10 fold | binding affinity to the chicken intestinal receptor [9]: the same binding affinity as 1,25(OH)2 D3

in vivo potency on calcium metabolism [14]: lower in vivo potency
Compound: C=C1/C(=C\C=C2/CCC[C@]3(C)[C@@H]([C@H](C)CCCCCC(C)(C)O)CC[C@@H]23)C[C@@H](O)C[C@@H]1O [Compound 36, 1(S),3(R)-Dihydroxy-20(R)-(6-hydroxy-6-methyl-1-heptyl)-9,10-secopregna-5(Z),7(E),10(19)-triene]
concentration needed to induce cell differentiation [12]: the same low concentrations as 1,25(OH)2 D3 | concentration effective in inhibiting proliferation [13]: the same low concentrations as 1,25(OH)2 D3

in vivo potency on calcium metabolism [14]: lower in vivo potency
Compound: C=C1/C(=C\C=C2/CCC[C@]3(C)[C@@H]([C@H](C)CCCCCCC(C)(C)O)CC[C@@H]23)C[C@@H](O)C[C@@H]1O [Compound 37, 1(S),3(R)-Dihydroxy-20(R)-(7-hydroxy-7-methyl-1-octyl)-9,10-secopregna-5(Z),7(E),10(19)-triene]
concentration needed to induce cell differentiation [12]: the same low concentrations as 1,25(OH)2 D3 | concentration effective in inhibiting proliferation [13]: the same low concentrations as 1,25(OH)2 D3

in vivo potency on calcium metabolism [14]: lower in vivo potency
Compound: C=C1/C(=C\C=C2/CCC[C@]3(C)[C@@H]([C@H](C)/C=C/CCCCC(C)(C)O)CC[C@@H]23)C[C@@H](O)C[C@@H]1O [Compound 38]
concentration needed to induce cell differentiation [12]: the same low concentrations as 1,25(OH)2 D3 | concentration effective in inhibiting proliferation [13]: the same low concentrations as 1,25(OH)2 D3

in vivo potency on calcium metabolism [14]: lower in vivo potency
Compound: C=C1/C(=C\C=C2/CCC[C@]3(C)[C@@H]([C@H](C)/C=C/CCCC(C)(C)O)CC[C@@H]23)C[C@@H](O)C[C@@H]1O [Compound 54]
concentration needed to induce cell differentiation [12]: the same low concentrations as 1,25(OH)2 D3 | concentration effective in inhibiting proliferation [13]: the same low concentrations as 1,25(OH)2 D3

Compound: C=C1/C(=C\C=C2/CCC[C@]3(C)[C@@H]([C@H](C)/C=C/[C@@H](O)C4CC4)CC[C@@H]23)C[C@@H](O)C[C@@H]1O [MC 903]
induction of cell differentiation [15]: potent inducer of cell differentiation | activity on calcium metabolism in vivo [16]: only moderate activity | inhibition of cell proliferation [17]: inhibitor of cell proliferation | binding to the intestinal vitamin D receptor [18]: binds equally well as 1,25(OH)2 D3

From US5206229A, “Vitamin D analogues” (Leo Pharmaceutical Products LTD, priority 1988, dated 1993)
